The values that follow come from ChEMBL document CHEMBL2375323, “Cu(OTf)2 catalyzed three component reaction: efficient synthesis of spiro[indoline-3,4'-pyrano[3,2-b]pyran derivatives and their anticancer potency towards A549 human lung cancer cell lines” (Bioorg Med Chem Lett, 2013).

As a reminder, the IC50 is the concentration at which inhibition is half-maximal.

This experiment relates to A549. Kind of experiment: Cytotoxicity against human A549 cells assessed as growth inhibition by MTT assay. Format: functional, cell-based. (Tetrazolium dyes change colour on reduction, which living cells bring about.)
As to `N#CC1=C(N)Oc2c(oc(CO)cc2=O)C12C(=O)Nc1ccc(Cl)cc12` (centres undefined), the IC50 was determined as 51.4 µM.
As for `CCOC(=O)C1=C(N)Oc2c(oc(CO)cc2=O)C12C(=O)Nc1ccc(Cl)cc12` (centres undefined), the IC50 was 53.1 µM.
The same measure for `CCOC(=O)C1=C(N)Oc2c(oc(CO)cc2=O)C12C(=O)Nc1ccc(F)cc12` (centres undefined): above 200 µM; for `N#CC1=C(N)Oc2c(oc(CO)cc2=O)C12C(=O)N(Cc1ccccc1)c1ccccc12` (centres undefined): above 200 µM; for `COC(=O)C1=C(N)Oc2c(oc(CO)cc2=O)C12C(=O)Nc1ccc([N+](=O)[O-])cc12` (centres undefined): 55.9 µM.
In the case of `N#CC1=C(N)Oc2c(oc(CO)cc2=O)C12C(=O)Nc1ccccc12` (centres undefined), the IC50 is 52.8 µM.
Regarding `N#CC1=C(N)Oc2c(oc(CO)cc2=O)C12C(=O)Nc1ccc(Br)cc12` (centres undefined), the IC50 was above 200 µM.
Take `CCOC(=O)C1=C(N)Oc2c(oc(CO)cc2=O)C12C(=O)Nc1ccc(C)cc12` (centres undefined): the IC50 is 52.9 µM.
Regarding `COC(=O)C1=C(N)Oc2c(oc(CO)cc2=O)C12C(=O)N(Cc1ccccc1)c1ccccc12` (centres undefined), the 50% inhibitory concentration (IC50) was 55.1 µM.
For `C=CCN1C(=O)C2(C(C(=O)OCC)=C(N)Oc3c2oc(CO)cc3=O)c2ccccc21` (centres undefined) the value was 54.6 µM.
As for `CCOC(=O)C1=C(N)Oc2c(oc(CO)cc2=O)C12C(=O)Nc1ccc(Br)cc12` (centres undefined), the IC50 was determined as 52.8 µM.
For `COC(=O)C1=C(N)Oc2c(oc(CO)cc2=O)C12C(=O)Nc1ccccc12` (centres undefined) the value was 56.2 µM; for `COC(=O)C1=C(N)Oc2c(oc(CO)cc2=O)C12C(=O)Nc1ccc(C)cc12` (centres undefined), 62.8 µM.
Regarding `C#CCN1C(=O)C2(C(C#N)=C(N)Oc3c2oc(CO)cc3=O)c2ccccc21` (centres undefined), the 50% inhibitory concentration (IC50) was above 200 µM.
For `CCOC(=O)C1=C(N)Oc2c(oc(CO)cc2=O)C12C(=O)N(C)c1ccccc12` (centres undefined) the value was 55.8 µM.
Turning to `CCOC(=O)C1=C(N)Oc2c(oc(CO)cc2=O)C12C(=O)Nc1ccccc12` (centres undefined), the 50% inhibitory concentration (IC50) was above 200 µM.
The same measure for `C=CCN1C(=O)C2(C(C#N)=C(N)Oc3c2oc(CO)cc3=O)c2ccccc21` (centres undefined): 59.4 µM; for `N#CC1=C(N)Oc2c(oc(CO)cc2=O)C12C(=O)Nc1ccc(F)cc12` (centres undefined): above 200 µM; for `CN1C(=O)C2(C(C#N)=C(N)Oc3c2oc(CO)cc3=O)c2ccccc21` (centres undefined): 51.1 µM.
